Legend:
Settings in all cases: incubation time: 72 h
BT-474 [1] = test: normalised response (% of control), CellTox Green; higher = less cell death (100 = DMSO, 0 = benzethonium chloride kill control)
How it was run: (§1)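 Two readouts were taken after 72 h: CellTox Green fluorescence (485/520 nm) first, then CellTiter-Glo luminescence after 10 min at room temperature. Breast cancer cell lines had been seeded as 20 µl suspension into 384-well plates holding compound at 5 concentrations in 10-fold steps across a compound-specific 10,000-fold range. Each value is a normalised signal at a single concentration, with plates scaled to 0.1 % DMSO (100) and a positive kill control (0).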

BT-549 [2] = test: as above
How it was run: as §1

CAL-120 [3] = test: as above
How it was run: as §1

CAL-148 [4] = test: as above
How it was run: as §1

CAL-51 [5] = test: as above
How it was run: as §1

CAL-85-1 [6] = test: as above
How it was run: as §1

DU-4475 [7] = test: as above
How it was run: as §1

HCC1143 [8] = test: as above
How it was run: as §1

HCC1599 [9] = test: as above
How it was run: as §1

HCC1937 [10] = test: as above
How it was run: as §1

HDQ-P1 [11] = test: as above
How it was run: as §1

Hs578T [12] = test: as above
How it was run: as §1

MCF-10A [13] = test: as above
How it was run: as §1

MDA-MB-231 [14] = test: as above
How it was run: as §1

MDA-MB-436 [15] = test: as above
How it was run: as §1

MDA-MB-453 [16] = test: as above
How it was run: as §1

MDA-MB-468 [17] = test: as above
How it was run: as §1

MFM-223 [18] = test: as above
How it was run: as §1

BT-474 [19] = test: normalised response (% of control), CellTiter-Glo; higher = more viable cells (100 = DMSO, 0 = benzethonium chloride kill control)
How it was run: as §1

BT-549 [20] = test: as above
How it was run: as §1

CAL-120 [21] = test: as above
How it was run: as §1

CAL-148 [22] = test: as above
How it was run: as §1

CAL-51 [23] = test: as above
How it was run: as §1

CAL-85-1 [24] = test: as above
How it was run: as §1

DU-4475 [25] = test: as above
How it was run: as §1

HCC1143 [26] = test: as above
How it was run: as §1

HCC1599 [27] = test: as above
How it was run: as §1

HCC1937 [28] = test: as above
How it was run: as §1

HDQ-P1 [29] = test: as above
How it was run: as §1

Hs578T [30] = test: as above
How it was run: as §1

MCF-10A [31] = test: as above
How it was run: as §1

MDA-MB-231 [32] = test: as above
How it was run: as §1

MDA-MB-436 [33] = test: as above
How it was run: as §1

MDA-MB-453 [34] = test: as above
How it was run: as §1

MDA-MB-468 [35] = test: as above
How it was run: as §1

MFM-223 [36] = test: as above
How it was run: as §1

SK-BR-3 [37] = test: as above
How it was run: as §1

BT-474 [38] = test: normalised response (% of control), CellTiter-Glo; higher = more viable cells (100 = DMSO, 0 = benzethonium chloride kill control); remark: listed apart in the source
Description: (§2)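 DSRT, 72 h incubation, CellTox Green / CellTiter-Glo readout. Signal is normalised to DMSO and benzethonium chloride controls. Value is the normalised response at dose 3.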

BT-549 [39] = test: as above; remark: listed apart in the source
Description: as §2

CAL-120 [40] = test: as above; remark: listed apart in the source
Description: as §2

CAL-148 [41] = test: as above; remark: listed apart in the source
Description: as §2

CAL-51 [42] = test: as above; remark: listed apart in the source
Description: as §2

CAL-85-1 [43] = test: as above; remark: listed apart in the source
Description: as §2

DU-4475 [44] = test: as above; remark: listed apart in the source
Description: as §2

HCC1143 [45] = test: as above; remark: listed apart in the source
Description: as §2

HCC1599 [46] = test: as above; remark: listed apart in the source
Description: as §2

HCC1937 [47] = test: as above; remark: listed apart in the source
Description: as §2

HDQ-P1 [48] = test: as above; remark: listed apart in the source
Description: as §2

Hs578T [49] = test: as above; remark: listed apart in the source
Description: as §2

MCF-10A [50] = test: as above; remark: listed apart in the source
Description: as §2

MDA-MB-231 [51] = test: as above; remark: listed apart in the source
Description: as §2

MDA-MB-436 [52] = test: as above; remark: listed apart in the source
Description: as §2

MDA-MB-453 [53] = test: as above; remark: listed apart in the source
Description: as §2

MDA-MB-468 [54] = test: as above; remark: listed apart in the source
Description: as §2

MFM-223 [55] = test: as above; remark: listed apart in the source
Description: as §2

SK-BR-3 [56] = test: as above; remark: listed apart in the source
Description: as §2

Structure (SMILES)	normalised response (BT-474 [1]) [%]	normalised response (BT-549 [2]) [%]	normalised response (CAL-120 [3]) [%]	normalised response (CAL-148 [4]) [%]	normalised response (CAL-51 [5]) [%]	normalised response (CAL-85-1 [6]) [%]	normalised response (DU-4475 [7]) [%]	normalised response (HCC1143 [8]) [%]	normalised response (HCC1599 [9]) [%]	normalised response (HCC1937 [10]) [%]	normalised response (HDQ-P1 [11]) [%]	normalised response (Hs578T [12]) [%]	normalised response (MCF-10A [13]) [%]	normalised response (MDA-MB-231 [14]) [%]	normalised response (MDA-MB-436 [15]) [%]	normalised response (MDA-MB-453 [16]) [%]	normalised response (MDA-MB-468 [17]) [%]	normalised response (MFM-223 [18]) [%]	normalised response (BT-474 [19]) [%]	normalised response (BT-549 [20]) [%]	further results
CN(C)C/C=C/C(=O)Nc1cc2c(Nc3ccc(F)c(Cl)c3)ncnc2cc1O[C@H]1CCOC1 [Afatinib] (100 nM)	81.3	116	101	102	107	55.7	101	111	112	135	90.9	100	85.5	113	87	102	110	101	90.6	98.5	normalised response (CAL-120 [21]): 92.9%; normalised response (CAL-148 [22]): 75.1%; normalised response (CAL-51 [23]): 118%; normalised response (CAL-85-1 [24]): 65.9%; normalised response (DU-4475 [25]): 98.1%; normalised response (HCC1143 [26]): 100%; normalised response (HCC1599 [27]): 94.1%; normalised response (HCC1937 [28]): 89.8%; normalised response (HDQ-P1 [29]): 64%; normalised response (Hs578T [30]): 108%; normalised response (MCF-10A [31]): 32.4%; normalised response (MDA-MB-231 [32]): 103%; normalised response (MDA-MB-436 [33]): 98%; normalised response (MDA-MB-453 [34]): 77.3%; normalised response (MDA-MB-468 [35]): 87.2%; normalised response (MFM-223 [36]): 106%; normalised response (SK-BR-3 [37]): 27.5%
COc1cc(Nc2ncc3c(n2)-c2ccc(Cl)cc2C(c2c(F)cccc2OC)=NC3)ccc1C(=O)O [Alisertib] (1000 nM)	96	76.9	96.9	53.8	17.4	93.3	92.2	85.8	96.6	122	78.2	96.3	108	69.1	73.5	110	8.1	89.1	70.9	49.2	normalised response (CAL-120 [21]): 79.5%; normalised response (CAL-148 [22]): 62.6%; normalised response (CAL-51 [23]): 56.5%; normalised response (CAL-85-1 [24]): 90.5%; normalised response (DU-4475 [25]): 67.6%; normalised response (HCC1143 [26]): 71.3%; normalised response (HCC1599 [27]): 82.6%; normalised response (HCC1937 [28]): 86.5%; normalised response (HDQ-P1 [29]): 84.3%; normalised response (Hs578T [30]): 84.4%; normalised response (MCF-10A [31]): 76.3%; normalised response (MDA-MB-231 [32]): 78%; normalised response (MDA-MB-436 [33]): 62%; normalised response (MDA-MB-453 [34]): 140%; normalised response (MDA-MB-468 [35]): 27.2%; normalised response (MFM-223 [36]): 56.4%; normalised response (SK-BR-3 [37]): 76%
CC(=O)O[C@]1(C(C)=O)CC[C@H]2[C@@H]3C=C(C)C4=CC(=O)CC[C@]4(C)[C@H]3CC[C@@]21C [Megestrol acetate] (1000 nM)	97.6	108	101	104	115	104	99.1	116	96.8	58.1	106	98.8	103	110	57.4	105	141	101	111	109	normalised response (CAL-120 [21]): 98.2%; normalised response (CAL-148 [22]): 92.4%; normalised response (CAL-51 [23]): 124%; normalised response (CAL-85-1 [24]): 100%; normalised response (DU-4475 [25]): 102%; normalised response (HCC1143 [26]): 103%; normalised response (HCC1599 [27]): 111%; normalised response (HCC1937 [28]): 110%; normalised response (HDQ-P1 [29]): 104%; normalised response (Hs578T [30]): 105%; normalised response (MCF-10A [31]): 121%; normalised response (MDA-MB-231 [32]): 118%; normalised response (MDA-MB-436 [33]): 101%; normalised response (MDA-MB-453 [34]): 95.8%; normalised response (MDA-MB-468 [35]): 95.4%; normalised response (MFM-223 [36]): 96.6%; normalised response (SK-BR-3 [37]): 93.8%
CCN1CCN(c2ccc(Nc3cc(N(C)C(=O)Nc4c(Cl)c(OC)cc(OC)c4Cl)ncn3)cc2)CC1 [NVP-BGJ398] (100 nM)	98.1	99.1	90.8	104	111	108	99.3	111	95.3	112	73	91	101	104	99.7	103	89.7	95.7	94.5	94.3	normalised response (CAL-120 [21]): 84.7%; normalised response (CAL-148 [22]): 92.6%; normalised response (CAL-51 [23]): 112%; normalised response (CAL-85-1 [24]): 97.3%; normalised response (DU-4475 [25]): 101%; normalised response (HCC1143 [26]): 97.7%; normalised response (HCC1599 [27]): 102%; normalised response (HCC1937 [28]): 98.8%; normalised response (HDQ-P1 [29]): 101%; normalised response (Hs578T [30]): 95.8%; normalised response (MCF-10A [31]): 103%; normalised response (MDA-MB-231 [32]): 96.1%; normalised response (MDA-MB-436 [33]): 93.4%; normalised response (MDA-MB-453 [34]): 104%; normalised response (MDA-MB-468 [35]): 97.1%; normalised response (MFM-223 [36]): 63.3%; normalised response (SK-BR-3 [37]): 97.5%
O=C(c1ccc(C(=O)N2CCC(N3CCCC3)CC2)c(Nc2ccccc2)c1)N1CCC(N2CCCC2)CC1 [UNC1215] (300 nM)	101	94.4	101	104	77.2	98.7	101	93.9	93.7	85.9			86.4	90.9	65.3	100	129				normalised response (BT-474 [38]): 98.3%; normalised response (BT-549 [39]): 96.7%; normalised response (CAL-120 [40]): 96.7%; normalised response (CAL-148 [41]): 93.6%; normalised response (CAL-51 [42]): 62.6%; normalised response (CAL-85-1 [43]): 99.5%; normalised response (DU-4475 [44]): 99.5%; normalised response (HCC1143 [45]): 95%; normalised response (HCC1599 [46]): 93.2%; normalised response (HCC1937 [47]): 92.7%; normalised response (HDQ-P1 [48]): 97.6%; normalised response (Hs578T [49]): 98%; normalised response (MCF-10A [50]): 94.5%; normalised response (MDA-MB-231 [51]): 99.1%; normalised response (MDA-MB-436 [52]): 99.7%; normalised response (MDA-MB-453 [53]): 104%; normalised response (MDA-MB-468 [54]): 90%; normalised response (MFM-223 [55]): 97.7%; normalised response (SK-BR-3 [56]): 94%
